Patent US8563714B2, “Bridged spiro [2.4] heptane derivatives as ALX receptor and/or FPRL2 agonists” (Actelion Pharmaceuticals Ltd., priority 2009, dated 2013)
pEC50: −log10 of the molar value.

Tests used:
[1] = biological target: T1, human FPRL2 (Homo sapiens, UniProt P25089); assay: Intracellular calcium measurements (FLIPR), agonistic activity in HEK293-hFPRL2-Gα16 cells; type: cell-based; details: Fluo-4 calcium FLIPR, normalized to GLY14-Humanin 100 nM
T1 construct: expressed in transfected cells; host or cells: HEK293 (HEK293-hFPRL2-Gα16)
T1 sequence (P25089 1-353): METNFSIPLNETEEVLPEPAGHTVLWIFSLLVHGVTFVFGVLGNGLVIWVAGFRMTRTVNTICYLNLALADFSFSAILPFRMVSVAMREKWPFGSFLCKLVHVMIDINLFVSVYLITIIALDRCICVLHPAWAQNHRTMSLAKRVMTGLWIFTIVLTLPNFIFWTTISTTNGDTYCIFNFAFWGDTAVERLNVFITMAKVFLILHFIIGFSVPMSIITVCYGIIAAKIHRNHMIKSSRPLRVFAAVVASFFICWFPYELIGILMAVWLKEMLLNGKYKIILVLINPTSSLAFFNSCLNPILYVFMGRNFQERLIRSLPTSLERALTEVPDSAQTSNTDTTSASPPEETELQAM
Procedure, shortened: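 Peak values after baseline subtraction are expressed relative to 100 nM Gly14-Humanin; compounds diluted in assay buffer from 10 mM DMSO stocks.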

[2] = biological target: T2, human ALX receptor (Homo sapiens, UniProt P25090); assay: Intracellular calcium measurements (FLIPR), agonistic activity in HEK293-hALXR-Gα16 cells; type: cell-based; details: Fluo-4 calcium FLIPR, normalized to WKYMVm 10 nM
T2 construct: expressed in transfected cells; host or cells: HEK293 (HEK293-hALXR-Gα16)
T2 sequence (P25090 1-351): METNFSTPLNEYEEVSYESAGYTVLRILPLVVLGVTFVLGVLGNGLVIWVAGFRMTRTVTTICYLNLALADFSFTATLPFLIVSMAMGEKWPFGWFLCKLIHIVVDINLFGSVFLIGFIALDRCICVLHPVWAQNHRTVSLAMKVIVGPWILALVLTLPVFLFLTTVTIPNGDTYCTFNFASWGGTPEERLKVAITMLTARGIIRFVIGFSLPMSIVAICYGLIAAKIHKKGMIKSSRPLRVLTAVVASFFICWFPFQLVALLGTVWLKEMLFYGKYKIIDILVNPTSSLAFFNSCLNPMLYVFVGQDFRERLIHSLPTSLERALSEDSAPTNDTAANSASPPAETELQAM
Procedure, shortened: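 HEK293 cells expressing hALXR and Gα16 were loaded with 1 μM Fluo-4 AM and 20 mM HEPES for 60 min at 37°C, then exposed to serially diluted compound. FLIPR fluorescence was read at ex 488/em 540 nm. Baseline-subtracted peak responses were normalized to 10 nM WKYMVm.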

Row | Compound | pEC50 [1] | pEC50 [2]
1 | NC(=O)CCNC(=O)[C@H]1[C@H](C(=O)Nc2ccc(Cl)nc2)[C@@H]2CC[C@H]1C21CC1 [Example 298, (5R)—N^5-(2-Chloro-pyridin-5-yl)-(6R)—N^6-(3-amino-3-oxopropyl)-(4S,7R)-[4,7-ethylene-spiro[2.4]heptane]-5,6-dicarboxamide] | 5.39 | 7.62
2 | O=C(NCCCCN1CCCC1)[C@H]1[C@H](C(=O)NCc2cnc(Br)s2)[C@@H]2C=C[C@H]1C21CC1 [Example 312, (5R)—N^5-(2-Bromo-thiazol-5-yl-methyl)-(6R)—N^6-(4-pyrrolidino-butyl)-(4S,7R)-[4,7-ethenylene-spiro[2.4]heptane]-5,6-dicarboxamide] | 6.68 | 6.67
3 | Cc1ccc(NC(=O)[C@H]2[C@H](C(=O)NCCC(N)=O)[C@H]3C=C[C@@H]2C32CC2)nc1 [Example 313, (5R)—N^5-(5-Methyl-pyridin-2-yl)-(6R)—N^6-(3-amino-3-oxopropyl)-(4S,7R)-[4,7-ethenylene-spiro[2.4]heptane]-5,6-dicarboxamide] | < 4.60 | 6.48
4 | O=C(NCCCCN1CCCC1)[C@H]1[C@H](C(=O)Nc2cc(F)c(Br)cc2F)[C@@H]2C=C[C@H]1C21CC1 [Example 314, (5R)—N^5-(4-Bromo-2,5-difluorophenyl)-(6R)—N^6-(4-pyrrolidino-butyl)-(4S,7R)-[4,7-ethenylene-spiro[2.4]heptane]-5,6-dicarboxamide] | 6.69 | 6.99
5 | O=C(NCCCCN1CCCC1)[C@H]1[C@H](C(=O)Nc2c(F)cc(Br)cc2F)[C@@H]2C=C[C@H]1C21CC1 [Example 315, (5R)—N^5-(4-Bromo-2,6-difluorophenyl)-(6R)—N^6-(4-pyrrolidino-butyl)-(4S,7R)-[4,7-ethenylene-spiro[2.4]heptane]-5,6-dicarboxamide] | 6.53 | 8.03
6 | O=C(NCCCCN1CCCC1)[C@H]1[C@H](C(=O)Nc2ccc(Br)c(F)c2F)[C@@H]2C=C[C@H]1C21CC1 [Example 316, (5R)—N^5-(4-Bromo-2,3-difluorophenyl)-(6R)—N^6-(4-pyrrolidino-butyl)-(4S,7R)-[4,7-ethenylene-spiro[2.4]heptane]-5,6-dicarboxamide] | 6.91 | 6.63
7 | O=C(NCCCCN1CCCC1)[C@H]1[C@H](C(=O)NCc2c(F)cc(Br)cc2F)[C@@H]2C=C[C@H]1C21CC1 [Example 317, (5R)—N^5-(4-Bromo-2,6-difluorophenyl-methyl)-(6R)—N^6-(4-pyrrolidin-1-yl-butyl)-(4S,7R)-[4,7-ethenylene-spiro[2.4]heptane]-5,6-dicarboxamide] | 7.36 | 7.55
8 | O=C(NCCCCN1CCCC1)[C@H]1[C@H](C(=O)NCc2ccc(Br)cc2F)[C@@H]2CC[C@H]1C21CC1 [Example 318, (5R)—N^5-(4-Bromo-2-fluorophenyl-methyl)-(6R)—N^6-(4-pyrrolidino-butyl)-(4S,7R)-[4,7-ethylene-spiro[2.4]heptane]-5,6-dicarboxamide] | 7.74 | 7.89
9 | NCCCCCNC(=O)[C@H]1[C@H](C(=O)NCc2ccc(Br)cc2F)[C@@H]2C=C[C@H]1C21CC1 [Example 319, (5R)—N^5-(4-Bromo-2-fluorophenyl-methyl)-(6R)—N^6-(5-amino-pentyl)-(4S,7R)-[4,7-ethenylene-spiro[2.4]heptane]-5,6-dicarboxamide] | 6.48 | 7.26
10 | NCCCCNC(=O)[C@H]1[C@H](C(=O)NCc2ccc(Br)cc2F)[C@@H]2C=C[C@H]1C21CC1 [Example 320, (5R)—N^5-(4-Bromo-2-fluorophenyl-methyl)-(6R)—N^6-(4-amino-butyl)-(4S,7R)-[4,7-ethenylene-spiro[2.4]heptane]-5,6-dicarboxamide] | 6.33 | 7.28
11 | O=C(NCCCCN1CCCC1)[C@H]1[C@H](C(=O)NCc2ccc(Br)c(F)c2)[C@@H]2C=C[C@H]1C21CC1 [Example 321, (5R)—N^5-(4-Bromo-3-fluorophenyl-methyl)-(6R)—N^6-(4-pyrrolidino-butyl)-(4S,7R)-[4,7-ethenylene-spiro[2.4]heptane]-5,6-dicarboxamide] | 7.82 | 6.93
12 | NCCCCCNC(=O)C1C(C(=O)Nc2ncc(Br)s2)C2C=CC1C21CC1 [Example 322, (5R)—N^5-(5-Bromo-thiazol-2-yl)-(6R)—N^6-(5-amino-pentyl)-(4S,7R)-[4,7-ethenylene-spiro[2.4]heptane]-5,6-dicarboxamide] | 6.42 | 9.21
13 | O=C(NC1CCNCC1)[C@H]1[C@H](C(=O)Nc2ncc(Br)s2)[C@@H]2C=C[C@H]1C21CC1 [Example 323, (5R)—N^5-(5-Bromo-thiazol-2-yl)-(6R)—N^6-(piperidin-4-yl)-(4S,7R)-[4,7-ethenylene-spiro[2.4]heptane]-5,6-dicarboxamide] | 5.33 | 7.77
14 | O=C(NCC1CCNCC1)C1C(C(=O)Nc2ncc(Br)s2)C2C=CC1C21CC1 [Example 324, (5R)—N^5-(5-Bromo-thiazol-2-yl)-(6R)—N^6-(piperidin-4-yl-methyl)-(4S,7R)-[4,7-ethenylene-spiro[2.4]heptane]-5,6-dicarboxamide] | 5.81 | 8.24
15 | NCC1CCN(C(=O)[C@H]2[C@H](C(=O)Nc3ncc(Br)s3)[C@@H]3C=C[C@H]2C32CC2)CC1 [Example 325, (5R)—N^5-(5-Bromo-thiazol-2-yl)-(6R)—N^6,N^6-(3-(aminomethyl)pentane-1,5-diyl)-(4S,7R)-[4,7-ethenylene-spiro[2.4]heptane]-5,6-dicarboxamide] | < 4.85 | 7.72
16 | NCCCCCNC(=O)[C@H]1[C@H](C(=O)NCc2ccc(Br)cc2F)[C@@H]2CC[C@H]1C21CC1 [Example 326, (5R)—N^5-(4-Bromo-2-fluorophenyl-methyl)-(6R)—N^6-(5-amino-pentyl)-(4S,7R)-[4,7-ethylene-spiro[2.4]heptane]-5,6-dicarboxamide] | 6.03 | 7.66
17 | O=C(NCCCCN1CCCC1)[C@H]1[C@H](C(=O)NCc2ccc(Br)c(F)c2F)[C@@H]2C=C[C@H]1C21CC1 [Example 327, (5R)—N^5-(4-Bromo-2,3-difluorophenyl-methyl)-(6R)—N^6-(4-pyrrolidino-butyl)-(4S,7R)-[4,7-ethenylene-spiro[2.4]heptane]-5,6-dicarboxamide] | 7.57 | 7.40
18 | O=C(NCCCCN1CCCC1)[C@H]1[C@H](C(=O)NCc2cc(F)c(Br)c(F)c2)[C@@H]2C=C[C@H]1C21CC1 [Example 328, (5R)—N^5-(4-Bromo-3,5-difluorophenyl-methyl)-(6R)—N^6-(4-pyrrolidino-butyl)-(4S,7R)-[4,7-ethenylene-spiro[2.4]heptane]-5,6-dicarboxamide] | 7.22 | 7.34
19 | O=C(NCCCCN1CCCC1)[C@H]1[C@H](C(=O)NCc2cc(F)c(Br)cc2F)[C@@H]2C=C[C@H]1C21CC1 [Example 329, (5R)—N^5-(4-Bromo-2,5-difluorophenyl-methyl)-(6R)—N^6-(4-pyrrolidino-butyl)-(4S,7R)-[4,7-ethenylene-spiro[2.4]heptane]-5,6-dicarboxamide] | 7.19 | 6.52
20 | O=C(NC1CCNCC1)[C@H]1[C@H](C(=O)Nc2ncc(Br)s2)[C@@H]2CC[C@H]1C21CC1 [Example 330, (5R)—N^5-(5-Bromo-thiazol-2-yl)-(6R)—N^6-(piperidin-4-yl)-(4S,7R)-[4,7-ethylene-spiro[2.4]heptane]-5,6-dicarboxamide] | 5.35 | 7.62
21 | CC(C)CNC(=O)[C@H]1[C@H](C(=O)Nc2ncc(Br)s2)[C@@H]2CC[C@H]1C21CC1 [Example 331, (5R)—N^5-(5-Bromo-thiazol-2-yl)-(6R)—N^6-(isobutyl)-(4S,7R)-[4,7-ethylene-spiro[2.4]heptane]-5,6-dicarboxamide] | 5.08 | 7.09
22 | CC(C)(C)OC(=O)NCCCCNC(=O)[C@H]1[C@H](C(=O)Nc2ncc(Br)s2)[C@@H]2CC[C@H]1C21CC1 [Example 332, (5R)—N^5-(5-Bromo-thiazol-2-yl)-(6R)—N^6-(4-tert-butoxycarbonyl-amino-butyl)-(4S,7R)-[4,7-ethylene-spiro[2.4]heptane]-5,6-dicarboxamide] | 5.45 | 6.33
23 | CC(C)(C)OC(=O)NCCCCCNC(=O)C1C(C(=O)Nc2ncc(Br)s2)C2CCC1C21CC1 [Example 333, (5R)—N^5-(5-Bromo-thiazol-2-yl)-(6R)—N^6-(5-tert-butoxycarbonyl-amino-pentyl)-(4S,7R)-[4,7-ethylene-spiro[2.4]heptane]-5,6-dicarboxamide] | 5.91 | 6.28
